± gives the uncertainty stated by the source.
Assay: xn = mol fraction of the nth substance listed

Cc1ccc(O)cc1 + C1CCCCC1
viscosity [mPa·s]
Conditions	101 kPa	101.33 kPa
303.15 K, x2 = 0.1014	7.352 ± 0.11	7.352 ± 0.2
303.15 K, x2 = 0.1683	5.44 ± 0.081	5.44 ± 0.14
303.15 K, x2 = 0.3021	4.004 ± 0.06	4.004 ± 0.11
303.15 K, x2 = 0.3949	2.988 ± 0.045	2.988 ± 0.078
303.15 K, x2 = 0.5007	2.25 ± 0.034	2.25 ± 0.059
303.15 K, x2 = 0.6007	1.732 ± 0.026	1.732 ± 0.045
303.15 K, x2 = 0.7004	1.35 ± 0.02	1.35 ± 0.035
303.15 K, x2 = 0.7973	1.11 ± 0.017	1.1 ± 0.029
303.15 K, x2 = 0.8999	0.909 ± 0.014	0.909 ± 0.024
308.15 K, x1 = 0.0725	0.8571 ± 0.007	–
308.15 K, x1 = 0.2007	1.086 ± 0.0087	–
308.15 K, x1 = 0.3167	1.393 ± 0.011	–
308.15 K, x1 = 0.3977	1.673 ± 0.013	–
308.15 K, x1 = 0.5218	2.252 ± 0.017	–
308.15 K, x1 = 0.6527	3.175 ± 0.024	–
308.15 K, x1 = 0.7637	4.421 ± 0.033	–
308.15 K, x1 = 0.8681	6.119 ± 0.043	–
308.15 K, x1 = 0.9441	7.786 ± 0.053	–

Cc1cccc(C)c1 + C1CCCCC1
101 kPa
Conditions	viscosity [mPa·s]
303 K, x1 = 0.1017	0.7217 ± 0.0051
303 K, x1 = 0.2009	0.6601 ± 0.0048
303 K, x1 = 0.3085	0.6191 ± 0.0046
303 K, x1 = 0.4005	0.5943 ± 0.0045
303 K, x1 = 0.503	0.5759 ± 0.0045
303 K, x1 = 0.5848	0.5648 ± 0.0044
303 K, x1 = 0.7009	0.552 ± 0.0044
303 K, x1 = 0.8041	0.5484 ± 0.0045
303 K, x1 = 0.9025	0.5445 ± 0.0045
308.15 K, x2 = 0.0628	0.516 ± 0.0094
308.15 K, x2 = 0.1619	0.5217 ± 0.0094
308.15 K, x2 = 0.2398	0.522 ± 0.0095
308.15 K, x2 = 0.3421	0.5304 ± 0.0096
308.15 K, x2 = 0.4497	0.5417 ± 0.0097
308.15 K, x2 = 0.5501	0.5626 ± 0.01
308.15 K, x2 = 0.6692	0.587 ± 0.01
308.15 K, x2 = 0.7673	0.6144 ± 0.011
308.15 K, x2 = 0.8649	0.6595 ± 0.011
308.15 K, x2 = 0.9489	0.7148 ± 0.012
313 K, x1 = 0.1017	0.6251 ± 0.0045
313 K, x1 = 0.2009	0.5799 ± 0.0043
313 K, x1 = 0.3085	0.548 ± 0.0041
313 K, x1 = 0.4005	0.5296 ± 0.0041
313 K, x1 = 0.503	0.5178 ± 0.0041
313 K, x1 = 0.5848	0.508 ± 0.0041
313 K, x1 = 0.7009	0.5009 ± 0.0041
313 K, x1 = 0.8041	0.493 ± 0.0041
313 K, x1 = 0.9025	0.492 ± 0.0042
313.15 K, x2 = 0.0628	0.4892 ± 0.009
313.15 K, x2 = 0.1619	0.4949 ± 0.0091
313.15 K, x2 = 0.2398	0.4963 ± 0.0091
313.15 K, x2 = 0.3421	0.5022 ± 0.0092
313.15 K, x2 = 0.4497	0.5152 ± 0.0093
313.15 K, x2 = 0.5501	0.5304 ± 0.0096
313.15 K, x2 = 0.6692	0.5548 ± 0.0099
313.15 K, x2 = 0.7673	0.5837 ± 0.01
313.15 K, x2 = 0.8649	0.6213 ± 0.011
313.15 K, x2 = 0.9489	0.6685 ± 0.011
323 K, x1 = 0.1017	0.5481 ± 0.004
323 K, x1 = 0.2009	0.5125 ± 0.0039
323 K, x1 = 0.3085	0.4884 ± 0.0038
323 K, x1 = 0.4005	0.4736 ± 0.0037
323 K, x1 = 0.503	0.4625 ± 0.0037
323 K, x1 = 0.5848	0.4562 ± 0.0037
323 K, x1 = 0.7009	0.45 ± 0.0037
323 K, x1 = 0.8041	0.4466 ± 0.0038
323 K, x1 = 0.9025	0.4461 ± 0.0038

O=S(=O)(Cl)Cl + C1CCCCC1
298.15 K, 101 kPa
Conditions	viscosity [mPa·s]
x1 = 0.321	0.7303
x1 = 0.647	0.677
x1 = 0.797	0.6695

O=S1(=O)CCCC1 + C1CCOC1
viscosity [mPa·s], 101 kPa
Conditions	303.15 K	308.15 K	313.15 K	318.15 K	323.15 K
x2 = 0.268	3.74 ± 0.39	2.9 ± 0.29	3.41 ± 0.34	2.93 ± 0.29	2.68 ± 0.27
x2 = 0.541	1.53 ± 0.15	1.46 ± 0.15	1.34 ± 0.13	1.26 ± 0.13	1.18 ± 0.12
x2 = 0.772	0.77 ± 0.08	0.74 ± 0.07	0.72 ± 0.07	0.7 ± 0.07	0.68 ± 0.07

Cc1ccc(O)cc1 + C1COCCO1
viscosity [mPa·s], 101 kPa
Conditions	303.15 K	308.15 K	313.15 K	318.15 K
x1 = 0.0835	1.335 ± 0.01	1.184 ± 0.0093	1.097 ± 0.0087	0.9967 ± 0.0079
x1 = 0.1701	1.476 ± 0.011	1.319 ± 0.01	1.201 ± 0.0094	1.106 ± 0.0087
x1 = 0.26	1.752 ± 0.013	1.563 ± 0.012	1.422 ± 0.011	1.289 ± 0.01
x1 = 0.3534	2.165 ± 0.017	1.887 ± 0.015	1.71 ± 0.013	1.542 ± 0.012
x1 = 0.4504	2.798 ± 0.021	2.473 ± 0.019	2.175 ± 0.017	1.964 ± 0.015
x1 = 0.5515	3.65 ± 0.028	3.108 ± 0.024	2.733 ± 0.021	2.409 ± 0.019
x1 = 0.6567	4.783 ± 0.036	4.09 ± 0.031	3.524 ± 0.026	–
x1 = 0.7663	6.413 ± 0.046	5.276 ± 0.039	4.492 ± 0.033	3.804 ± 0.028
x1 = 0.8807	8.261 ± 0.058	5.704 ± 0.042	5.704 ± 0.041	4.834 ± 0.036
x2 = 0.1	–	6.901 ± 0.082	–	–
x2 = 0.2	–	5.697 ± 0.069	–	–
x2 = 0.3	–	4.498 ± 0.055	–	–
x2 = 0.4	–	3.461 ± 0.043	–	–
x2 = 0.5	–	2.724 ± 0.034	–	–
x2 = 0.6	–	2.14 ± 0.027	–	–
x2 = 0.7	–	1.705 ± 0.021	–	–
x2 = 0.8	–	1.401 ± 0.018	–	–
x2 = 0.9	–	1.142 ± 0.015	–	–

Cc1cccc(C)c1 + C1COCCO1
Conditions	viscosity [mPa·s]
298.15 K, 101 kPa, x2 = 0.7182	1.005 ± 0.021

NCCCO + C1COCCO1
viscosity [mPa·s], 101 kPa
Conditions	x1 = 0.1197	x1 = 0.2269	x1 = 0.3332	x1 = 0.4339	x1 = 0.5403	x1 = 0.6385	x1 = 0.7328	x1 = 0.8244	x1 = 0.9072
298.15 K	1.419 ± 0.026	1.847 ± 0.033	2.619 ± 0.047	3.465 ± 0.062	4.883 ± 0.088	6.97 ± 0.12	10.21 ± 0.18	15 ± 0.27	20.98 ± 0.37
303.15 K	1.294 ± 0.023	1.654 ± 0.03	2.311 ± 0.042	3.05 ± 0.055	4.251 ± 0.076	5.966 ± 0.11	8.411 ± 0.15	12.14 ± 0.22	16.7 ± 0.3
308.15 K	1.188 ± 0.022	1.488 ± 0.027	2.037 ± 0.037	2.674 ± 0.048	3.624 ± 0.065	4.916 ± 0.088	6.868 ± 0.12	9.516 ± 0.17	13.47 ± 0.24

O=S1(=O)CCCC1 + C1COCCO1
viscosity [mPa·s], 101 kPa
Conditions	x1 = 0.0809	x1 = 0.1742	x1 = 0.2786	x1 = 0.3855	x1 = 0.4739	x1 = 0.5744	x1 = 0.6247	x1 = 0.7169	x1 = 0.8462	x1 = 0.9062
303.15 K	1.276 ± 0.012	1.517 ± 0.015	1.854 ± 0.018	2.293 ± 0.022	2.756 ± 0.027	3.428 ± 0.033	3.841 ± 0.037	4.786 ± 0.047	6.656 ± 0.063	7.852 ± 0.073
313.15 K	1.086 ± 0.011	1.284 ± 0.013	1.558 ± 0.015	1.912 ± 0.018	2.28 ± 0.022	2.809 ± 0.027	3.13 ± 0.03	3.861 ± 0.037	5.275 ± 0.051	6.164 ± 0.059
323.15 K	0.9369 ± 0.0093	1.104 ± 0.011	1.332 ± 0.013	1.622 ± 0.016	1.922 ± 0.019	2.348 ± 0.023	2.605 ± 0.025	3.182 ± 0.03	4.278 ± 0.041	4.942 ± 0.048

O=S1(=O)CCCC1 + C1COCO1
viscosity [mPa·s], 101 kPa
Conditions	303.15 K	308.15 K	313.15 K	318.15 K	323.15 K
x1 = 0.207	0.89 ± 0.09	0.85 ± 0.09	0.82 ± 0.08	0.78 ± 0.08	0.75 ± 0.08
x1 = 0.43	1.49 ± 0.15	1.39 ± 0.14	1.24 ± 0.13	1.21 ± 0.12	1.17 ± 0.12
x1 = 0.658	3.04 ± 0.31	2.53 ± 0.26	2.32 ± 0.24	2.12 ± 0.22	1.99 ± 0.2
